{"source": "patent US20150099800A1", "about": "“NOVEL LIPASE INHIBITORS, REPORTER SUBSTRATES AND USES THEREOF” (Northeastern University, priority 2012, published 2015)", "key": {"[1]": {"test_system": "DAGL", "settings": "cited from earlier work"}, "[2]": {"target": "T1, Pancreatic Lipase (Porcine) (Sus scrofa, UniProt P00591)", "T1 construct": "purchased Sigma L3126", "T1 sequence (P00591 1-450)": "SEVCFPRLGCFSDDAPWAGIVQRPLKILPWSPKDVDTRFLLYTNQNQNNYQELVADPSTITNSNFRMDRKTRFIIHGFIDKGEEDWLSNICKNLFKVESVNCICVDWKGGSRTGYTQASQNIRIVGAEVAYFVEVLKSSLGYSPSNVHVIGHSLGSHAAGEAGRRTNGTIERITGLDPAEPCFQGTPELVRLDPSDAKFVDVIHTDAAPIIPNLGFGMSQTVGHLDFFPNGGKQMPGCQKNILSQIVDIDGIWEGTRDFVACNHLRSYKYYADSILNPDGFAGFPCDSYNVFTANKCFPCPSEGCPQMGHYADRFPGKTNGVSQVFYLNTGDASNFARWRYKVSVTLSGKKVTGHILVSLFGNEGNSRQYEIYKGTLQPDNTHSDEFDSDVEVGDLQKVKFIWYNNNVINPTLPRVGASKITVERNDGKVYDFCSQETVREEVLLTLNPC", "assay_type": "biochemical"}, "[3]": {"target": "T2, MAGL (Homo sapiens, UniProt Q99685)", "T2 sequence (Q99685 1-303)": "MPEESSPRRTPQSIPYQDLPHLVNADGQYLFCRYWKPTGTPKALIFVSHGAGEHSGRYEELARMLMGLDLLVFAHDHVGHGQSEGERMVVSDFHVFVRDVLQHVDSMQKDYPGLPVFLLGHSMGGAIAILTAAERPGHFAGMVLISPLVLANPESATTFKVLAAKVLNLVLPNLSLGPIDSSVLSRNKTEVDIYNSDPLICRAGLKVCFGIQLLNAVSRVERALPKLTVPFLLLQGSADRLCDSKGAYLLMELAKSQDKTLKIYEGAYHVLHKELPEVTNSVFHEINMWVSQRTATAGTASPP", "settings": "cited from earlier work"}, "[4]": {"target": "T2, MAGL", "assay": "hMAGL coumarin substrate fluorescence assay", "assay_type": "biochemical", "design": "The N-terminal his-tagged full length human monoacylglycerol lipase used; His (N); made in house; host or cells: E. coli"}, "[5]": {"test_system": "FAAH", "settings": "cited from earlier work"}, "[6]": {"target": "T3, hDAGLα (Homo sapiens, UniProt Q9Y4D2)", "T3 sequence (Q9Y4D2 1-1042)": "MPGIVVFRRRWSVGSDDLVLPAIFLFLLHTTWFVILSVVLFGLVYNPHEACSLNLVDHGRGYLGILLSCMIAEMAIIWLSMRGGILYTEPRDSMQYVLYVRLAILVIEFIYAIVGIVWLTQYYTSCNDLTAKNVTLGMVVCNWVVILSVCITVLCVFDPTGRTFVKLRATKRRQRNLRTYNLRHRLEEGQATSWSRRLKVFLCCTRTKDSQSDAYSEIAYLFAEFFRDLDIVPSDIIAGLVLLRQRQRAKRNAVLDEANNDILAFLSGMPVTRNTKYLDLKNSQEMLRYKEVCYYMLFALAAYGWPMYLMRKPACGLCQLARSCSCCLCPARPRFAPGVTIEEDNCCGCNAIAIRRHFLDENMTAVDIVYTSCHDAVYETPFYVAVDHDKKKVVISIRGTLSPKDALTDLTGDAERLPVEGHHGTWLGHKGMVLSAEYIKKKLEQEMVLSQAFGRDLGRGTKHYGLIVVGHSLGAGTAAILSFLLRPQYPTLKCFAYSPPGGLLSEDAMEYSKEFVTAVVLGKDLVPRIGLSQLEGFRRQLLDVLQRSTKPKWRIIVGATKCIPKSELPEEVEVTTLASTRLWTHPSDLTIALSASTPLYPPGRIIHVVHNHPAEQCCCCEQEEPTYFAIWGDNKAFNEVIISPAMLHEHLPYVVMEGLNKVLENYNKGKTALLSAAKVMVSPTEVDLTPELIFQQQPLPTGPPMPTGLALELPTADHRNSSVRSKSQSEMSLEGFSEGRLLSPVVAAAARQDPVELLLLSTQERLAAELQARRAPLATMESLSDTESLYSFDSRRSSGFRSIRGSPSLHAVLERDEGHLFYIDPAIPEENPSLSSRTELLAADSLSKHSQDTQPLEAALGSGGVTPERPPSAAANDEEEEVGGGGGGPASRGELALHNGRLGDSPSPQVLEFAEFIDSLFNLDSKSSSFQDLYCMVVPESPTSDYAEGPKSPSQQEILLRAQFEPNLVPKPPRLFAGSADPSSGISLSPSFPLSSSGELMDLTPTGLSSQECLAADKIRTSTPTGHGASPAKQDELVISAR"}, "[7]": {"test_system": "cannabinoid receptors", "settings": "cited from earlier work"}, "[8]": {"target": "T3, hDAGLα", "assay": "biochemical", "settings": "read-out: hDAGLα inhibition at 10 μM TLC (with Triton X-100) (%), 10 μM; 0.05% Triton X-100 present"}, "[9]": {"test_system": "pancreatic and extrapancreatic fat necrosis", "settings": "literature, cited from earlier work"}, "[10]": {"settings": "intraperitoneal (IP) injections"}}, "note": "Like-named read-outs stand apart in the source and are kept apart here."}
{"compound": "O=C(Oc1ccc([N+](=O)[O-])cc1)N1CCC(C(O)(c2ccc3c(c2)OCO3)c2ccc3c(c2)OCO3)CC1", "note": "[JZL184]", "values": [{"measurement": "effect on DAGL activity reported in the literature", "setting": "[1]", "result": "poor inhibitors"}, {"measurement": "Pancreatic Lipase (Porcine) inhibition at 10 μM (%)", "setting": "[2]", "result": 36, "unit": "%"}, {"measurement": "inhibition of MAGL activity reported in the literature", "setting": "[3]", "result": "poor inhibitors"}, {"measurement": "hMAGL inhibition at 10 μM (%)", "setting": "[4]", "result": "100^F %"}, {"measurement": "inhibition of FAAH activity reported in the literature", "setting": "[5]", "result": "poor inhibitors"}, {"measurement": "hDAGLα inhibition at 10 μM detergent free (%), FRET", "setting": "[6]", "result": "59, 44° %"}, {"measurement": "hDAGLα inhibition at 10 μM detergent free (%), FRET, marker °", "setting": "[6]", "result": "59, 44° %"}, {"measurement": "binding to the cannabinoid receptors, previous reports", "setting": "[7]", "result": "did not bind"}]}
{"compound": "CCCCCCCCCCC[C@@H](C[C@@H]1OC(=O)[C@H]1CCCCCC)OC(=O)[C@H](NC=O)[C@@H](C)CC", "note": "[Compound 7]", "values": [{"measurement": "Pancreatic Lipase (Porcine) inhibition at 10 μM (%)", "setting": "[2]; 10 μM", "result": 95, "unit": "%"}, {"measurement": "hMAGL inhibition at 10 μM (%)", "setting": "[4]; 10 μM", "result": 42, "unit": "%"}, {"measurement": "hDAGLα inhibition at 10 μM (0.05% Triton X-100) (%), FRET", "setting": "[6]; 10 μM", "result": 98, "unit": "%"}, {"measurement": "hDAGLα inhibition at 10 μM detergent free (%), FRET", "setting": "[6]; 10 μM, detergent free", "result": 90, "unit": "%"}]}
{"compound": "CCCCCCCCCCCC(CC1OC(=O)C1CCCCCC)OC(=O)C(NC=O)C(C)CC", "note": "(centres unmarked) [Compound 6]", "values": [{"measurement": "Pancreatic Lipase (Porcine) inhibition at 10 μM (%)", "setting": "[2]; 10 μM", "result": 99, "unit": "%"}, {"measurement": "hMAGL inhibition at 10 μM (%)", "setting": "[4]; 10 μM", "result": 39, "unit": "%"}, {"measurement": "hDAGLα inhibition at 10 μM (0.05% Triton X-100) (%), FRET", "setting": "[6]; 10 μM", "result": 98, "unit": "%"}, {"measurement": "hDAGLα inhibition at 10 μM detergent free (%), FRET", "setting": "[6]; 10 μM, detergent free", "result": 90, "unit": "%"}]}
{"compound": "CCCCCCCCCCC[C@@H](C[C@@H]1OC(=O)[C@H]1CCCCCC)OC(=O)[C@H](CC(C)C)NC=O", "note": "[Compound 3, tetrahydrolipstatin]", "values": [{"measurement": "inhibition at 10 µM", "setting": "[8]", "result": 100, "unit": "%"}, {"measurement": "inhibition of porcine triacylglycerol lipase, FRET", "setting": "[2]; preliminary studies", "result": "potent inhibition"}, {"measurement": "inhibition at 10 µM", "setting": "[2]; read-out: Pancreatic Lipase (Porcine) inhibition at 10 μM (%)", "result": 96, "unit": "%"}, {"measurement": "effect on concentration of free fatty acid in the blood", "setting": "[9]; [10]", "result": "no effect"}, {"measurement": "lowering of lipase activity in the blood", "setting": "[9]; [10]", "result": "small effect"}, {"measurement": "prevention of pancreatic and extrapancreatic fat necrosis", "setting": "[9]; rodents", "result": "not effective"}, {"measurement": "inhibition of MAGL activity reported in the literature", "setting": "[3]; literature", "result": "poor inhibitors"}, {"measurement": "inhibition at 10 µM", "setting": "[4]; read-out: hMAGL inhibition at 10 μM (%)", "result": 47, "unit": "%"}, {"measurement": "inhibition of FAAH activity reported in the literature", "setting": "[5]; literature", "result": "poor inhibitors"}, {"measurement": "binding to the cannabinoid receptors, previous reports", "setting": "[7]; literature", "result": "did not bind"}]}
